From patent publication US11117907B2, “Curcuminoid-inspired synthetic compounds as anti-tumor agents” (University of North Florida Board of Trustees, priority 2017, dated 2021)
Read-outs that look alike come from different tables or passages of the source.

Legend:
[1] = tested on: Various cancer cell lines; experiment: Cancer cell line growth at 1×10^−5 M curcuminoid; assay type: cell-based; conditions: all cancer cell lines
Method: Various cancer cell lines were seeded into 384-well culture plates at 2×10^3 cell/well and incubated at 5% CO2, 37° C. The culture media was replaced with 1×10^−5 M of curcuminoid; 1,7-bis(2,3,6-trimethoxyphenyl)hepta-1,4,6-triene-3,5-dione, 7-bis(3-benzothiophene)hepta-1,4,6-triene-3,5-dione, or D-793176. The cell line growth was measured.

MDA231 = experiment: In vitro cell viability bioassay, MTT, MDA231; assay type: cell-based, human
Method: (§1) To evaluate the cell growth inhibitory and apoptosis inducing effects of the fluorinated curcuminoids and their BF2 adducts, in-vitro bioassay tests were performed on […] different cancer cell lines namely: MOLT-4 (human leukemia suspension cancer cell line), PC3 and LNCap (human […] prostate cancer cell lines respectively), A549 (lung cancer), and MDA231 (breast cancer), and the results are sketched in Table 3.
(§2) The cell viability/anti-proliferative activity of the curcuminoids against PC3 (human androgen-insensitive prostate cancer cell line), LNCap (human-androgen sensitive prostate cancer cell line), A549 (lung cancer), and MDA231 (breast cancer) were determined by means of 3-(4,5-dimethyl-2-thiazolyl)-2,5-diphenyl-2H-tetrazolium bromide (MTT) assay (the tetrazolium salt was a commercial sample). (R. N. Khaybullin, et al., Molecules, 2014, 19, 18676-18689). The ability of the curcuminoids to affect proliferations of suspension cell lines (MOLT-4) was tested by the CellTiter-Glo® Luminescent Cell Viability Assay (purchased from Promega Madison, Wis., USA) to determine the number of viable cells in culture based on quantitation of the ATP present. The IC50 values were obtained from fitting data with GraphPad software to determine the growth inhibition in the presence of test compounds. (R. N. Khaybullin, et al., Molecules, 2014, 19, 18676-18689).

MOLT-4 = experiment: In vitro cell viability bioassay, CellTiter-Glo, MOLT-4; assay type: cell-based, human
Method: as §1, §2

[2] = tested on: NCI-60 human tumor cell lines; experiment: NCI-60 one-dose screening (10^−5 M); assay type: cell-based
Source text: The CUR—BF2 adducts 5, 10, and 19, the (CF3)2—CUR 20 and the (CF3)2—CUR—BF2 adduct 21 of FIG. 2 were screened at the National Cancer Institute using NCI-60 cell one-dose protocol (10^−5 M).
(§3) Samples were submitted to the National Cancer Institute (NCI of NIH) Developmental Therapeutics anticancer screening program (DTP) for human tumor cell line assay by NCI-60 screening against leukemia, lung, colon, and CNS cancers, as well as melanoma, ovarian, renal, prostate, and breast cancers. Compounds are initially tested at a single dose of 10-5 molar. Data are reported as mean graph of percent growth (GP). Growth inhibition is shown by values between 0 and 100 and lethality by values less than zero. Compounds that meet selection criteria based on one-dose assay are then tested against 60 cell panel at five concentrations.
as §3, with “NCI-60 assay: Samples” for “Samples”, “10^−5” for “10-5”
NCI-60 assay: samples were submitted to the National Cancer Institute (NCI of NIH) Developmental Therapeutics anticancer screening program (DTP) for human tumor cell line assay by NCI-60 screening against leukemia, lung, colon, and CNS cancers, as well as melanoma, ovarian, renal, prostate, and breast cancers. Compounds are initially tested at a single dose of 10^−5 molar. Data are reported as mean graph of percent growth (GP). Selected data output are shown in SI file. Growth inhibition is represented by values between 0 and 100 and lethality by values less than zero.

PC3 = experiment: In vitro cell viability bioassay, MTT, PC3; assay type: cell-based; conditions: Homo sapiens, PC-3; MTT assay; read-out: Prostate Cancer IC50 (μM) PC3
Method: as §1, §2

LNCap = experiment: In vitro cell viability bioassay, MTT, LNCap; assay type: cell-based; conditions: Homo sapiens, MTT assay, read-out: Prostate Cancer IC50 (μM) LNCap
Method: as §1, §2

A549 = experiment: In vitro cell viability bioassay, MTT, A549; assay type: cell-based; conditions: Homo sapiens, MTT assay, read-out: Lung Cancer IC50 (μM) A549
Method: as §1, §2

PBMCs = experiment: Apoptosis (annexin-V/PI flow cytometry), healthy donor PBMCs; assay type: cell-based, human
Method: (§4) Apoptotic cell death in multiple myeloma (MM) cancer cell lines (RPMI-8226, KMS-11, MM1.S) as well as peripheral blood mononuclear cells (PBMCs) from healthy donors that were exposed to various concentrations of (A) CUR-analog 1 (Indole-4 CUR—BF2) and (B) CUR-analog 2 (Indole-5 CUR) or (C) the FDA-approved Bcl-2 inhibitor (venetoclax, used for comparison) was assessed.
(§5) Cell lines and PBCMs (peripheral blood mononuclear cells from healthy donors as non-cancer CONTROL) were seeded in quadruplicate (technical replicates). CellTiter-Glo® 2.0 reagent equal to the volume of cell culture medium present in each well was added and the plate was left to incubate at room temperature for 10 minutes to stabilize the luminescent signal. Luminescent signal/intensity from the 384-well plate was read on a plate reader. Cells/cell lines used: BCWM.1 (Waldenstrom macroglobulinemia cell line, WM); RPMI-8266 (Multiple myeloma cell line, MM); RS4; 11 (Acute lymphoblastic leukemia, ALL). For Apoptosis study cells were treated with the indicated agents and concentrations (FIG. 74) for 24 h and stained with annexin-V and propidium iodide (PI), followed by flow cytometry analysis.

MM cell lines = experiment: Apoptosis (annexin-V/PI flow cytometry), median over MM cell lines; assay type: cell-based, human; conditions: 1.25, 2.5, 5 uM and 10 uM
Method: Apoptotic cell death in multiple myeloma (MM) cancer cell lines (RPMI-8226, KMS-11, MM1.S) as well as peripheral blood mononuclear cells (PBMCs) from healthy donors that were exposed to various concentrations of (A) CUR-analog 1 (Indole-4 CUR—BF2) and (B) CUR-analog 2 (Indole-5 CUR) or (C) the FDA-approved Bcl-2 inhibitor (venetoclax, used for comparison) was assessed. Bar graphs show % of apoptotic cells (annexin-V+PI positive cells) normalized to basal apoptosis observed in control (DMSO-treated) cells.
In contrast, in KMS11 and MM1.S cells, notable apoptosis (54% and 15%, respectively) was seen only at a 10 uM concentration.
as §5, with “For Apoptosis study cells were treated with the indicated agents and concentrations (FIG. 74) for 24 h and stained with annexin-V and propidium iodide (PI), followed by flow cytometry analysis.” left out

[3] = tested on: MM cell lines (MM1.S, KMS11, RPMI-8226); experiment: Cell proliferation and viability in multiple myeloma cell lines (CellTiter Glo 2.0, 72 h); assay type: cell-based, human; conditions: read-out: median IC50 concentration in MM cell lines
Method: Cell proliferation and viability were determined in multiple myeloma (MM) cancer cell lines (RPMI-8226, KMS-11, MM1.S) as well as in peripheral blood mononuclear cells (PBMCs) from healthy donors that were exposed to various concentrations of (A) CUR-analog 1 (3-BF2) and (B) CUR-analog 2 (CUR 2) for 72 hours using the CellTiter Glo 2.0 assay.
as §5

MM1.S = experiment: Apoptosis (annexin-V/PI flow cytometry), MM1.S; assay type: cell-based, human
Method: as §4, §5

KMS-11 = experiment: Apoptosis (annexin-V/PI flow cytometry), KMS-11; assay type: cell-based, human
Method: as §4, §5

RPMI-8226 = experiment: Apoptosis (annexin-V/PI flow cytometry), RPMI-8226; assay type: cell-based, human; conditions: 2.5 uM, 24 h
Method: as §4, §5

[4] = Table 4, repeats Table 3, read-out: IC50 MDA231 (Breast cancer)
[5] = Table 5, repeats Table 3, read-out: Leukemia MOLT-4 IC50
[6] = Homo sapiens, MOLT-4, CellTiter-Glo Luminescent Cell Viability Assay, read-out: Leukemia IC50 (μM) MOLT-4
[7] = Homo sapiens, MDA-MB-231, MTT assay, read-out: Breast Cancer IC50 (μM) MDA231
[8] = Homo sapiens, MDA-MB-231, Table 4, repeats Table 3, read-out: IC50 MDA231 (Breast cancer)

Compound: 1,7-bis(2,3,6-trimethoxyphenyl)hepta-1,4,6-triene-3,5-dione
- cell line growth relative to non-treated cells [1]: ≤ 50%

Compound: O=C(/C=C/c1ccc(F)cc1)C(F)=C(O)/C=C/c1ccc(F)cc1
- IC50 (MDA231; [4]): 12 µM

Compound: COc1ccc(/C=C/C(=O)C=C(O)/C=C/c2ccc(OC)c(OC)c2)cc1OC [drawing 83]
- IC50 (MOLT-4; [5]): 0.043 µM

Compound: O=C(/C=C/c1ccc(SC(F)(F)F)cc1)/C=C(O)\C=C\c1ccc(SC(F)(F)F)cc1 [compound 19 of FIG. 35, (1E,4E,6E)-5-Hydroxy-1,7-bis(4-trifluoromethylthiophenyl)hepta-1,4,6-trien-3-one]
- anti-proliferative potency against HCT-116 ([2]; dose mean graph, FIG. 22): high anti-proliferative potency

Compound: COc1cc(/C=C/C(=O)CC(=O)/C=C/c2ccc(O)c(OC)c2)ccc1O [compound 1 of FIG. 2, curcumin]
- IC50 (MOLT-4; [6]): 19 µM
- IC50 (MDA231; [7]): 11.5 µM
- IC50 (PC3): 9 µM
- IC50 (LNCap): 9.7 µM
- IC50 (A549): 18 µM

Compound: COc1ccc(/C=C/C2=CC(/C=C/c3ccc(OC)c(OC)c3)=[O+][B-](F)(F)O2)cc1OC [drawing 73]
- IC50 (MDA231; [4]): 2 µM

Compound: CC1(C)CCC(CN2CCN(c3ccc(C(=O)NS(=O)(=O)c4ccc(NCC5CCOCC5)c([N+](=O)[O-])c4)c(Oc4cnc5[nH]ccc5c4)c3)CC2)=C(c2ccc(Cl)cc2)C1 [Venetoclax, reference compound]
- cell death in healthy donor PBMCs (PBMCs; 1.25, 2.5, 5 uM and 10 uM): ~10%
- median apoptosis, MM cell lines (MM cell lines): 15%

Compound: F[B-]1(F)OC(/C=C/c2cccc3[nH]ccc23)=CC(/C=C/c2cccc3[nH]ccc23)=[O+]1 [3-BF2, Indole-4-Curcuminoid-BF2 adduct]
- IC50 [3]: 2.1 µM
- apoptosis, healthy donor PBMCs (PBMCs; […] and 2.5 uM, 24 h): 23-28%
- apoptosis, MM1.S (MM1.S; 2.5 uM, 24 h): 47%
- apoptosis, KMS-11 (KMS-11; 2.5 uM, 24 h): 79%
- apoptosis, RPMI-8226 (RPMI-8226): 60%

Compound: Fc1ccc(/C=C/C2=CC(/C=C/c3ccc(F)cc3)=[O+][B-](F)(F)O2)cc1
- IC50 (MDA231; [4]): 1 µM

Compound: COc1cc(/C=C/C(=O)C(F)(F)C(=O)/C=C/c2ccc(OC)c(OC)c2)ccc1O
- IC50 (MDA231; [8]): 2.2 µM

Compound: COc1ccc(/C=C/C2=CC(/C=C/c3ccc(OC)c(OC)c3)=[O+][B-](F)(F)O2)cc1OC [drawing 84]
- IC50 (MOLT-4; [5]): 0.00056 µM

Compound: O=C(/C=C/c1ccc(F)cc1)C(F)(F)C(=O)/C=C/c1ccc(F)cc1 [drawing 77]
- IC50 (MDA231; [8]): 6.7 µM

Compound: (1E,4E,6E)-5-Hydroxy-1,7-bis(indole-5)hepta-1,4,6-trien-3-one [compound 2 of Example 5]
- apoptosis, MM1.S (MM1.S; 10 uM): 15%
- apoptosis, KMS11 (KMS-11; 10 uM): 54%
- apoptosis, RPMI-8226 (RPMI-8226): 65%

Compound: F[B-]1(F)OC(/C=C/c2ccc(C(F)(F)F)cc2)=CC(/C=C/c2ccc(C(F)(F)F)cc2)=[O+]1
- NCI-60 cell screening ([2]; words in the IC50 MDA231 column of Table 4): NCI-60 cell screening modest activity

Compound: COc1cc(/C=C/C(=O)C=C(O)/C=C/c2ccc(O)c(OC)c2)ccc1O [drawing 82]
- IC50 (MOLT-4; [5]): 19 µM

Compound: COc1cc(/C=C/C(=O)C(F)=C(O)/C=C/c2ccc(O)c(OC)c2)ccc1O
- IC50 (MDA231; [4]): 6.2 µM

Compound: COc1ccc(/C=C/C(=O)C(F)=C(O)/C=C/c2ccc(OC)c(OC)c2)cc1OC [drawing 85]
- IC50 (MOLT-4; [5]): 0.076 µM

Compound: COc1ccc(/C=C/C(=O)C(F)=C(O)/C=C/c2ccc(OC)c(OC)c2)cc1OC [drawing 69]
- IC50 (MDA231; [4]): 0.023 µM

Compound: COc1cc(F)c(/C=C/C2=CC(/C=C/c3cc(OC)c(OC)cc3F)=[O+][B-](F)(F)O2)cc1OC [drawing 86]
- IC50 (MOLT-4; [5]): 0.01 µM

Compound: O=C(/C=C/c1ccc(F)cc1)C(F)(F)C(=O)/C=C/c1ccc(F)cc1 [compound 12]
- IC50 (MOLT-4; [6]): 1.32 µM
- IC50 (MDA231; [7]): 6.7 µM
- IC50 (LNCap): 29.2 µM

Compound: COc1cc(/C=C/C(=O)C=C(O)/C=C/c2ccc(O)c(OC)c2)ccc1O [drawing 75]
- IC50 (MDA231; [4]): 11.5 µM

Compound: F[B-]1(F)OC(/C=C/c2csc3ccccc23)=CC(/C=C/c2csc3ccccc23)=[O+]1 [7-BF2, Benzothiophene-3-Curcuminoid-BF2 adduct]
- anti-proliferative activity by the NCI-60 in-vitro assay ([2]; 10^−5 molar, Example 5): notable anti-proliferative activity

Compound: COc1cc(F)c(/C=C/C2=CC(/C=C/c3cc(OC)c(OC)cc3F)=[O+][B-](F)(F)O2)cc1OC [drawing 72]
- IC50 (MDA231; [4]): 1.7 µM

Compound: COc1ccc(/C=C/C(=O)C=C(O)/C=C/c2ccc(OC)c(OC)c2)cc1OC [drawing 70]
- IC50 (MDA231; [4]): 0.28 µM

Compound: O=C(/C=C/c1ccc(OCc2ccccc2)c(OCc2ccccc2)c1)/C=C(O)\C=C\c1ccc(OCc2ccccc2)c(OCc2ccccc2)c1 [compound 5 of FIG. 35, (1E,4E,6E)-5-Hydroxy-1,7-bis(3,4-dibenzyloxyphenyl)hepta-1,4,6-trien-3-one]
- melting point: 150 to 153 °C
